Test results from patent US20060052447A1, “Novel substituted arylhexadienoic acids and esters thereof which can be used for the treatment and prevention of diabetes, dyslipidaemia and atherosclerosis, pharmaceutical compositios comprising them and processes for the preparation of them” (Merck Patent GmbH, priority 2002, published 2006).

What was measured:
Format in all cases: cell-based
[1] = target: T1, chimeric protein PPARγ-Gal4 (Homo sapiens, UniProt P37231); experiment: PPAR activation, Gal4 chimera luciferase reporter in co-transfected CV-1 cells; settings: 50 μM; CV-1 cells (monkey kidney cells); 18 hours contact; relative to control cells without product
T1 construct: expressed in transfected cells; host or cells: CV-1 cells (monkey kidney cells)
T1 sequence (P37231 238-503 limits assumed): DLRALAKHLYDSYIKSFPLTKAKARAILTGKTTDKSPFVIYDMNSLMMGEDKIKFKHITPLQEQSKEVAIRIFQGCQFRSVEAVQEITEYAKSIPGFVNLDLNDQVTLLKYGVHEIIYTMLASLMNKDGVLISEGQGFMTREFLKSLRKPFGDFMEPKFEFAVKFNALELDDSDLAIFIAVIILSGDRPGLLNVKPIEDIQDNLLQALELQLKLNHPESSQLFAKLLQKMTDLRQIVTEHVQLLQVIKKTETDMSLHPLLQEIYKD
Experimental: (§1) The measurement of the PPAR activation was performed according to a technique described by Lehmann et al. (1995, J. Biol. Chem. 270: 12953-12956).
(§2) CV-1 cells (monkey kidney cells) are co-transfected with an expression vector for the chimeric proteins PPARα-Gal4 or PPARγ-Gal4 and with a “reporter” plasmid that allows the expression of the luciferase gene placed under the control of a promoter containing Gal4 response elements.
(§3) The cells are inoculated in 96-well microplates and co-transfected using a commercial reagent with the reporter plasmid (pG5-tk-pGL3) and the expression vector for the chimeric protein (PPARα-Gal4 or PPARγ-Gal4). After incubating for 4 hours, whole culture medium (comprising 10% foetal calf serum) is added to the wells. After 24 hours, the medium is removed and replaced by whole medium comprising the test products (50 μM final).
(§4) The products are left in contact with the cells for 18 hours. The cells are then lysed and the luciferase activity is measured using a luminometer. A PPAR activation factor can then be calculated by means of the activation of the expression of the reporter gene induced by the product (relative to the control cells that have not received any product).

[2] = target: T2, chimeric protein PPARα-Gal4 (Homo sapiens, UniProt Q07869); experiment: as above; settings: 50 μM; CV-1 cells (monkey kidney cells); 18 hours contact; relative to control cells without product
T2 construct: expressed in transfected cells; host or cells: CV-1 cells (monkey kidney cells)
T2 sequence (Q07869 239-466 limits assumed): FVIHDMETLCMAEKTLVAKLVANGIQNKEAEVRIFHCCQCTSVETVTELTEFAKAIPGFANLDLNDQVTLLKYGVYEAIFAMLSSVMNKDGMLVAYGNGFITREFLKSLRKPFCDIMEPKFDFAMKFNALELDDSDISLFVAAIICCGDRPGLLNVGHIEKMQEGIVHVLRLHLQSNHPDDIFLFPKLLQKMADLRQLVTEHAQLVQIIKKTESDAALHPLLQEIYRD
Experimental: as §1, §2, §3, §4

[3] = target: T3, vector expressing Gal4 alone (Saccharomyces cerevisiae, UniProt P04386); experiment: Luciferase reporter control without PPAR ligand binding region in CV-1 cells; settings: absence of the binding region for the PPAR α or γ ligand (Gal4 alone)
T3 construct: expressed in transfected cells; host or cells: CV-1 cells (monkey kidney cells)
T3 sequence (P04386 1-147 limits assumed): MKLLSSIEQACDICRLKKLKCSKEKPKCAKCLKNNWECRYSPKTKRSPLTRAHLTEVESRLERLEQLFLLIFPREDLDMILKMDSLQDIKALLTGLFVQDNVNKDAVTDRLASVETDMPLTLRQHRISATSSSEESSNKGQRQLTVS
From the text: CV-1 cells (monkey kidney cells) are co-transfected with an expression vector for the chimeric proteins PPARα-Gal4 or PPARγ-Gal4 and with a “reporter” plasmid that allows the expression of the luciferase gene placed under the control of a promoter containing Gal4 response elements. The cells are inoculated in 96-well microplates and co-transfected using a commercial reagent with the reporter plasmid (pG5-tk-pGL3) and the expression vector for the chimeric protein (PPARα-Gal4 or PPARγ-Gal4). After incubating for 4 hours, whole culture medium (comprising 10% foetal calf serum) is added to the wells. After 24 hours, the medium is removed and replaced by whole medium comprising the test products (50 μM final). The products are left in contact with the cells for 18 hours. The cells are then lysed and the luciferase activity is measured using a luminometer. A PPAR activation factor can then be calculated by means of the activation of the expression of the reporter gene induced by the product (relative to the control cells that have not received any product). […] In the absence of the binding region for the PPAR α or γ ligand (vector expressing Gal4 alone), the luciferase activity measured in the presence of this product is zero.

**Q.** How did the “PPAR activation factor (activation of expression of the luciferase reporter gene)” value [1] turn out when CCCC(C=CC(=O)c1cc(OC)ccc1OC)=CC(=O)OCC [Example 12, ethyl 6-(2,5-dimethoxyphenyl)-6-oxo-3-propylhexa-2,4-dienoate] was run?
**A.** five

**Q.** What about the “PPAR activation factor (activation of expression of the luciferase reporter gene)” value [2] of the same molecule?
**A.** seven

**Q.** And the “luciferase activity measured in the presence of the product” value [3]?
**A.** zero
